# Reference: paper PMC4122495, “Small Molecule Deubiquitinase Inhibitors Promote Macrophage Anti-Infective Capacity” (PLoS ONE, 2014)
# Experiments:
# [1] = Aqueous kinetic solubility; assay type: physicochemical
# [2] = system: HG23 cells; test: WST-1 cell viability assay in HG23 replicon cells; assay type: cell-based, human; conditions: 2.5 µM for 2 h, then 22 h
# Method: For cell viability assays in conditions that mimicked the viral infections, RAW264.7 cells were cultured as described above and treated for 0.5 h with 5 µM WP1130 or 2.5 µM compound 9, incubated for 1 h on ice, washed three times with ice-cold PBS and incubated for an additional 8 h in presence of DMSO and WP1130 only. One and a half hours prior to the end of the experiment, the WST-1 reagent was diluted 1 in 10 in the media. For cell viability in HG23 replicon cells, DMSO and WP1130 remained on the cells for 24 h before incubation with the WST-1 reagent, whereas compound 9 was removed after a 2 h exposure and the WST-1 reagent added after an additional 22 h.
# [3] = system: ubiquitinated proteins (DUB activity) in RAW264.7 cells; test: Anti-ubiquitin immunoblot of RAW264.7 whole-cell lysates; assay type: cell-based, murine; conditions: 2.5 µM, uninfected RAW264.7 cells, treatment 0.5 h to 6 h
# Method: RAW264.7 cells were cultured at an initial density of 4×10^6 cells per 6-well plate and allowed to adhere overnight. Macrophages were treated with 2.5 µM compound 9 for the indicated period of time. To obtain whole-cell lysates, cells were lysed in cell lysis buffer (10 mM Tris pH 8, 150 mM NaCl, 1% NP-40, 10 mM EDTA pH 8, 1 mM DTT and 1X protease inhibitors), incubated for 15 min on ice and briefly sonicated. Samples were diluted in 5X concentrated sample buffer containing β-mercaptoethanol and denatured at 95°C for 10 min. The samples were separated by SDS-PAGE on an 8% acrylamide gel and transferred to polyvinyldene fluoride membrane (PVDF, Millipore). Immunodetection was performed using an anti-ubiquitin monoclonal antibody (P4D1 clone, Santa Cruz), according to manufacturer’s instructions.
# [4] = system: L. monocytogenes; test: Bactericidal test on exponential-phase bacteria, 2 h at 4°C; assay type: cell-based, Listeria monocytogenes 10403S; conditions: concentrations up to 5 µM, exponential growth phase
# Method: (§1) For bacterial growth curve in broth culture, an overnight culture of L. monocytogenes was back-diluted 1∶50 into BHI broth in the presence of 5 µM of compounds 1 to 4, 2.5 µM of compound 9 or equivalent volume of DMSO and incubated statically at 30°C for up to 8 h. At indicated time points (0, 2, 4, 6 and 8 h), a 50 µl-aliquot of bacteria was serially diluted and plated on LB agar to determine the number of CFU. To test the bactericidal properties of compound 9, an overnight culture of L. monocytogenes was back-diluted 1∶50 into BHI broth and allowed to grow at 37°C with shaking until an optical density at 600 nm (OD600) of ∼0.6–0.7 was obtained. Bacteria were then exposed to 1, 2.5 or 5 µM of compound 9 or equivalent volume of DMSO for 2 h at 4°C. After incubation, bacteria were serially diluted and plated on LB agar to determine CFU.
# [5] = system: MNV-1; test: MNV-1 infection of RAW264.7 cells and plaque assay; assay type: cell-based, murine norovirus; conditions: RAW264.7 pre-treated 0.5 h with 2.5 µM; MOI 5; 8 h infection; plaque assay
# Method: RAW264.7 cells were plated at a density of 5×10^5 cells/ml in each well of a 12-well plate and allowed to attach overnight. The following day, cells were incubated with either 5 µM WP1130 or 2.5 µM compound 9, for 30 min at 37°C. After incubation, cells were placed on ice for 1 hour where they were infected with MNV-1 at an MOI of 5. Cells were then washed three times with ice-cold PBS. Cells treated with compound 9 received media alone after washing, while media containing WP1130 or DMSO was added back to cells and the infection was allowed to proceed for 8 hours. Cells were freeze-thawed twice, and viral titers were determined by plaque assay as previously described.
# [6] = system: USP9x; design: method as in Donato, N. J., manuscript in preparation; conditions: cell-based assay; ref Donato, N. J., manuscript in preparation; read-out: IC50 against USP9x; cited from earlier work
# [7] = system: L. monocytogenes; test: Bacterial growth curve in BHI broth culture; assay type: cell-based, Listeria monocytogenes 10403S; conditions: 2.5 µM in BHI broth
# Method: as §1
# [8] = system: RAW264.7 cells; test: WST-1 cell viability assay, conditions mimicking the bacterial infection protocol; assay type: cell-based, murine; conditions: 2.5 µM, 0.5 h pre-treatment, then 8 h
# Method: For cell viability assays in conditions that mimicked the bacterial infection protocol, RAW264.7 cells were cultured at an initial density of 4×10^6 cells per 96-well plate. Cells were treated with 2.5 or 5 µM DUB inhibitors dissolved in DMSO for 0.5 h or 1 h or with equivalent volume of DMSO. DUB inhibitors were removed after treatment by washing three times with PBS, and cells were incubated in culture media for 6.5 h at 37°C. The WST-1 reagent (Roche, San Francisco, CA), which measures mitochondrial dehydrogenase activity, was diluted 1 in 10 in media and cells were incubated at 37°C for an additional 1.5 h. The optical density at 440 nm (OD440) and 600 nm (OD600) was determined and results were normalized to DMSO-treated cells.
smiles,measurement,setting,value
CCCC(NC(=O)/C(C#N)=C/c1nc(Cl)ccc1Cl)c1ccc(OCCN2CCOCC2)cc1 (stereo not shown) [Compound 9],solubility kinetic,[1]; aqueous (not further specified),~20 µM
same,improvement in solubility vs WP1130,[1]; compound 9 compared to WP1130,> 6 fold
same,toxicity (WST-1 viability),[2],no toxicity
same,accumulation of ubiquitinated proteins (immunoblot),[3],ubiquitinated proteins accumulated as soon as 0.5 h
same,bactericidal activity,[4],No bactericidal activity
same,decrease in MNV-1 titers compared to DMSO-treated cells,[5],more than 2.5 logs
same,IC50,[6],1.8 µM
same,effect on overall CFU per ml by 8 h in broth culture,[7],did not significantly affect overall CFU per ml by 8 h
same,effect on growth rate in axenic broth culture,[7]; up to 8 h,modest decrease in the growth rate
same,cellular toxicity (WST-1 viability),[8],little cellular toxicity
